Source: patent US9073955B2, “2-amino-4-arylthiazole compounds as TRPA1 antagonists” (Glenmark Pharmaceuticals, S.A., priority 2010, dated 2015)
Counter-ions that a name gives are not always drawn. Like-named read-outs stand apart in the source and are kept apart here.

Target: T1, Human TRPA1 (Homo sapiens, UniProt O75762)
T1 construct: expressed in transfected cells; host or cells: CHO cells (grown with 400 μg/ml G-418)
Test: 45Calcium uptake assay: inhibition of AITC induced cellular uptake of radioactive calcium
Assay type: cell-based
Settings: human TRPA1 expressing CHO cells, AITC 30 μM
Protocol: The illustrative examples of the present invention were screened for TRPA1 activity according to a modified procedure described in (a) Tóth, A. et al. Life Sciences, 2003, 73, 487-498. ([…]. et al, Proc. Natl. Acad. Sci. U.S.A., 2007, 104, 13525-13530. The screening of the compounds can be carried out by other methods and procedures known to persons skilled in the art. Screening for TRPA1 Antagonist Using the ^45Calcium Uptake Assay: The inhibition of TRPA1 receptor activation was measured as inhibition of allyl isothiocyanate (AITC) induced cellular uptake of radioactive calcium. Test compounds were dissolved in 100% DMSO to prepare 10 mM stock and then diluted using plain medium with 0.1% BSA and 1.8 mM CaCl2 to get the desired concentration. The final concentration of DMSO in the reaction was 0.5% (v/v). Human TRPA1 expressing CHO cells were grown in F-12 DMEM medium with 10% FBS, 1% penicillin-streptomycin solution, and 400 μg/ml of G-418. Cells were seeded 24 h prior to the assay in 96 well plates so as to get 50,000 cells per well on the day of experiment. Cells were treated with the test compounds for 10 minutes followed by the addition of AITC at a final concentration of 30 μM and 5 μCi/ml^45Ca^+2 for 3 minutes. Cells were washed and lysed using a buffer containing 1% Triton X-100, 0.1% deoxycholate and 0.1% SDS. Radioactivity in the lysate was measured in a Packard TopCount after addition of liquid scintillant. (Toth et al, Life Sciences (2003) 73, 487-498; McNamara C R et al, Proceedings of the National Academy of Sciences, (2007) 104, 13525-13530). Concentration response curves were plotted as a % of maximal response obtained in the absence of test antagonist. IC50 values can be calculated from concentration response curve by nonlinear regression analysis using GraphPad PRISM software.

[1] = 1.0 μM, read-out: Percentage inhibition at 1.0 μM
[2] = 10.0 μM, read-out: Percentage inhibition at 10.0 μM
[3] = CHO, read-out: Percentage inhibition at 1.0 μM, 1.0 μM
[4] = CHO, read-out: Percentage inhibition at 10.0 μM, 10.0 μM

T1 sequence (O75762 whole entry): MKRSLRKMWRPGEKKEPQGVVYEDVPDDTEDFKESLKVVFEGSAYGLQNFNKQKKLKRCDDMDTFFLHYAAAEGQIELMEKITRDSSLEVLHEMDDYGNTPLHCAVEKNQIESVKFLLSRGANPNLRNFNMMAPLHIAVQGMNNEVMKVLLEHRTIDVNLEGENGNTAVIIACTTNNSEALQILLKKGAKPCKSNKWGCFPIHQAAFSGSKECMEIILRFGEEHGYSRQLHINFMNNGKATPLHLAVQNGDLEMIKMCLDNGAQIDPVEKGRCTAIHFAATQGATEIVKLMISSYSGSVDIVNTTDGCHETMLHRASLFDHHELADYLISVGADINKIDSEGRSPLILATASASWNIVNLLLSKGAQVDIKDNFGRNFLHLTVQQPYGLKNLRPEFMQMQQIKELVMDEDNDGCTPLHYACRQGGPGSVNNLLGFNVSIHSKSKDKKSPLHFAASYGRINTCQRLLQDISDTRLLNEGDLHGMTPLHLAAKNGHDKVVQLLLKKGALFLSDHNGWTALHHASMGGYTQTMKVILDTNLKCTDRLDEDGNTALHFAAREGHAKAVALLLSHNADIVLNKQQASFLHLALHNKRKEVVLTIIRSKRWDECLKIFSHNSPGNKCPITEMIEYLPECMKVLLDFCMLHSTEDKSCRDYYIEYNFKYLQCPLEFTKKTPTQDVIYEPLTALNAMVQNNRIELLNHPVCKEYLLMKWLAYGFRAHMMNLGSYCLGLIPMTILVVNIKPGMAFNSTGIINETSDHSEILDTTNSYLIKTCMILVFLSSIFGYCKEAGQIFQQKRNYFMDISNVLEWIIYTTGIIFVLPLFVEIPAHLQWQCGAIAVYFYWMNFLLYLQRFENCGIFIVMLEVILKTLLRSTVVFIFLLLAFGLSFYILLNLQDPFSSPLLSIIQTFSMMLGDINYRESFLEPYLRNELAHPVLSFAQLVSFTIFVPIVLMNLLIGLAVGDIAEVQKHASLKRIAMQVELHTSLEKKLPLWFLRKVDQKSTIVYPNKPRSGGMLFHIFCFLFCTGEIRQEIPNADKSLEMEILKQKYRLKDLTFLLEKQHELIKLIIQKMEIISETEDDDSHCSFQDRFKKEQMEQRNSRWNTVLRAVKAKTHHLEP

Row | SMILES | inhibition at 1 µM [1] [%] | inhibition at 10 µM [2] [%] | IC50 [nM] | inhibition at 1 µM (CHO, 1.0 μM, read-out: Percentage inhibition at 1.0 μM) [%] | inhibition at 10 µM (CHO, 10.0 μM, read-out: Percentage inhibition at 10.0 μM) [%] | inhibition at 1 µM [3] [%] | inhibition at 10 µM [4] [%]
1 | Cc1sc2c(c1CC(=O)/N=c1\scc(-c3ccc(F)c(C(F)(F)F)c3F)n1COP(=O)(O)O)c(=O)n(C)c(=O)n2C [Example 15, 4-(2,4-Difluoro-3-(trifluoromethyl)phenyl)-2-((2-(1,3,6-trimethyl-2,4-dioxo-1,2,3,4-tetrahydrothieno[2,3-(1]pyrimidin-5-yl)acetyl)imino)thiazol-3 (2H)-yl)methyl dihydrogen phosphate] | 81.2 | 98.5 | 100 to 500 | – | – | – | –
2 | Cc1sc2c(c1CC(=O)/N=c1\scc(-c3ccc(F)c(C(F)(F)F)c3F)n1COP(=O)(O)O)c(=O)n(C)c(=O)n2C [Example 16, Disodium(4-(2,4-difluoro-3-(trifluoromethyl)phenyl)-2-((2-(1,3,6-trimethyl-2,4-dioxo-1,2,3,4-tetrahydrothieno[2,3-d]pyrimidin-5-yl)acetyl)imino)thiazol-3(2H)-yl)methyl phosphate] | – | – | > 500 | – | – | 48.2 | 92.7
3 | CCc1sc2c(c1CC(=O)/N=c1\scc(-c3ccc(C(F)(F)F)c(F)c3)n1COP(=O)(O)O)c(=O)n(C)c(=O)n2C [Example 17, [2-{[(6-ethyl-1,3-dimethyl-2,4-dioxo-1,2,3,4-tetrahydrothieno[2,3-d]pyrimidin-5-yl)acetyl]imino}-4-[3-fluoro-4-(trifluoromethyl)phenyl]-1,3-thiazol-3 (2H)-yl]methyl dihydrogen phosphate] | 20.8 | 96.8 | > 500 | – | – | – | –
4 | CCc1sc2c(c1CC(=O)/N=c1\scc(-c3ccc(C(F)(F)F)c(F)c3)n1COP(=O)(O)O)c(=O)n(C)c(=O)n2C [Example 18, Disodium[2-{[(6-ethyl-1,3-dimethyl-2,4-dioxo-1,2,3,4-tetrahydrothieno[2,3-d]pyrimidin-5-yl)acetyl]imino}-4-[3-fluoro-4-(trifluoromethyl)phenyl]-1,3-thiazol-3(2H)-yl]methyl phosphate] | – | – | – | – | – | 30 | 88.7
5 | Cc1oc2c(c1CC(=O)/N=c1\scc(-c3ccc(OC(F)(F)F)c(Cl)c3)n1COC(=O)[C@@H](N)Cc1ccccc1)c(=O)n(C)c(=O)n2C [Example 24, 4-[3-Chloro-4-(trifluoromethoxy)phenyl]-2-{[(1,3,6-trimethyl-2,4-dioxo-1,2,3,4-tetrahydrofuro[2,3-d]pyrimidin-5-yl)acetyl]imino}-1,3-thiazol-3(2H)-yl]methyl L-phenylalaninate hydrochloride] | 98.1 | 99.8 | < 100 | – | – | – | –
6 | Cc1oc2c(c1CC(=O)/N=c1\scc(-c3ccc(C(F)(F)F)c(F)c3F)n1COP(=O)(O)O)c(=O)n(C)c(=O)n2C [Example 27, 4-[2,3-Difluoro-4-(trifluoromethyl)phenyl]-2-{[(1,3,6-trimethyl-2,4-dioxo-1,2,3,4-tetrahydrofuro[2,3-d]pyrimidin-5-yl)acetyl]imino}-1,3-thiazol-3(2H)-yl]methyl dihydrogen phosphate] | 93.8 | 99.3 | < 100 | – | – | – | –

Now from value to compound, other results behind:

Row | inhibition at 1 µM [1] [%] | inhibition at 10 µM [2] [%] | IC50 [nM] | inhibition at 1 µM (CHO, 1.0 μM, read-out: Percentage inhibition at 1.0 μM) [%] | inhibition at 10 µM (CHO, 10.0 μM, read-out: Percentage inhibition at 10.0 μM) [%] | SMILES | inhibition at 1 µM [3] [%] | inhibition at 10 µM [4] [%]
7 | 68.1 | 90.3 | 100 to 500 | – | – | CC(C)C(=O)OCn1c(-c2ccc(C(F)(F)F)c(F)c2)cs/c1=N\C(=O)Cc1csc2c1c(=O)n(C)c(=O)n2C [Example 1, [2-{[(1,3-Dimethyl-2,4-dioxo-1,2,3,4-tetrahydrothieno[2,3-d]pyrimidin-5-yl)acetyl]imino}-4-[3-fluoro-4-(trifluoromethyl)phenyl]-1,3-thiazol-3 (2H)-yl]methyl-2-methyl propanoate] | – | –
8 | 54.8 | 70.2 | > 500 | – | – | CC(C)C(=O)OCn1c(-c2ccc(F)c(C(F)(F)F)c2F)cs/c1=N\C(=O)Cc1csc2c1c(=O)n(C)c(=O)n2C [Example 2, [4-[2,4-Difluoro-3-(trifluoromethyl)phenyl]-2-{[(1,3-dimethyl-2,4-dioxo-1,2,3,4-tetrahydrothieno[2,3-d]pyrimidin-5-yl)acetyl]imino}-1,3-thiazol-3(2H)-yl]methyl-2-methylpropanoate] | – | –
9 | – | – | < 100 | 98.6 | 99.9 | CC(C)[C@H](N)C(=O)OCn1c(-c2ccc(F)c(C(F)(F)F)c2F)cs/c1=N\C(=O)Cc1csc2c1c(=O)n(C)c(=O)n2C [Example 5, [4-[2,4-Difluoro-3-(trifluoromethyl)phenyl]-2-{[(1,3-dimethyl-2,4-dioxo-1,2,3,4-tetrahydrothieno[2,3-d]pyrimidin-5-yl)acetyl]imino}-1,3-thiazol-3 (2H)-yl]methyl L-valinate hydrochloride] | – | –
10 | 96.5 | 98.3 | < 100 | – | – | Cn1c(=O)c2c(CC(=O)/N=c3\scc(-c4ccc(F)c(C(F)(F)F)c4F)n3COC(=O)[C@@H]3CCCN3)csc2n(C)c1=O [Example 8, [4-[2,4-Difluoro-3-(trifluoromethyl)phenyl]-2-{[(1,3-dimethyl-2,4-dioxo-1,2,3,4-tetrahydrothieno[2,3-d]pyrimidin-5-yl)acetyl]imino}-1,3-thiazol-3(2H)-yl]methyl L-prolinate hydrochloride] | – | –
11 | 80.1 | 94.8 | 100 to 500 | – | – | Cn1c(=O)c2c(CC(=O)/N=c3\scc(-c4ccc(C(F)(F)F)c(F)c4)n3COC(=O)C3CCNCC3)csc2n(C)c1=O [Example 9, [2-{[(1,3-Dimethyl-2,4-dioxo-1,2,3,4-tetrahydrothieno[2,3-d]pyrimidin-5-yl)acetyl]imino}-4-[3-fluoro-4-(trifluoromethyl)phenyl]-1,3-thiazol-3(2H)-yl]methylpiperidine-4-carboxylate hydrochloride] | – | –
12 | – | – | 100 to 500 | – | – | Cn1c(=O)c2c(CC(=O)/N=c3\scc(-c4ccc(C(F)(F)F)c(F)c4)n3COP(=O)(O)O)csc2n(C)c1=O [Example 12, Disodium[2-{[(1,3-dimethyl-2,4-dioxo-1,2,3,4-tetrahydrothieno[2,3-d]pyrimidin-5-yl)acetyl]imino}-4-[3-fluoro-4-(trifluoromethyl)phenyl]-1,3-thiazol-3 (2H)-yl]methyl phosphate] | – | –
13 | 70.3 | 96.7 | 100 to 500 | – | – | Cc1oc2c(c1CC(=O)/N=c1\scc(-c3ccc(OC(F)(F)F)c(Cl)c3)n1COC(=O)C(C)(C)C)c(=O)n(C)c(=O)n2C [Example 19, [4-[3-Chloro-4-(trifluoromethoxy)phenyl]-2-{[(1,3,6-trimethyl-2,4-dioxo-1,2,3,4-tetrahydrofuro[2,3-d]pyrimidin-5-yl)acetyl]imino}-1,3-thiazol-3 (2H)-yl]methyl 2,2-dimethylpropanoate] | – | –
14 | 99.2 | 99.6 | 100 to 500 | – | – | CC[C@H](C)[C@H](N)C(=O)OCn1c(-c2ccc(OC(F)(F)F)c(Cl)c2)cs/c1=N\C(=O)Cc1c(C)oc2c1c(=O)n(C)c(=O)n2C [Example 22, [4-[3-Chloro-4-(trifluoromethoxy)phenyl]-2-{[(1,3,6-trimethyl-2,4-dioxo-1,2,3,4-tetrahydrofuro[2,3-d]pyrimidin-5-yl)acetyl]imino}-1,3-thiazol-3 (2H)-yl]methyl L-isoleucinate hydrochloride] | – | –
